The target in one assay is T1, WT α1A-AR (Homo sapiens, UniProt P35348).
T1 construct: gene ADRA1A; wild type, pcDNA3.1, expressed in COS-7 cells
T1 sequence (P35348 1-466): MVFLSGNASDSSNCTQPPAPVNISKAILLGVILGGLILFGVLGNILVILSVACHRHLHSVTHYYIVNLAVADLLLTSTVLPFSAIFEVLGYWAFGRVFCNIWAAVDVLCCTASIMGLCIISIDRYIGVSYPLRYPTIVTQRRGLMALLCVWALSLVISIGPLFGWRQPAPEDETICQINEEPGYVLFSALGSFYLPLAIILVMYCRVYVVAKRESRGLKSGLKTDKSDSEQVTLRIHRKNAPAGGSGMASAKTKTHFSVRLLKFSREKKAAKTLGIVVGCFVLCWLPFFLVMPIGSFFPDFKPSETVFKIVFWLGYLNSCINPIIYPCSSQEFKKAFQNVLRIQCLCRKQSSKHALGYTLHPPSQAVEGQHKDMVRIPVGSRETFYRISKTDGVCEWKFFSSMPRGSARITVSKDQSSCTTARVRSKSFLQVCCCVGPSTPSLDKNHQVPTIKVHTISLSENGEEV
Format: cell-based. Particulars: inverse agonist; 100 nM.

The target in assay [1] is T2, α1A-AR-A4 (and its variants α1A-AR-A4 (L312F), α1A-AR-A4-active) (Homo sapiens, UniProt P35348, C14S/T15I/L36I/I65V/N67Y/L80M/F86Y/G127A/G143A/W151F/E171V/F312L/N322K/P327L/S329Y).
T2 construct: gene ADRA1A; thermostabilised, C-terminus truncated at Ser351 plus A and His10
T2 sequence (P35348 2-351 C14S/T15I/L36I/I65V/N67Y/L80M/F86Y/G127A/G143A/W151F/E171V/F312L/N322K/P327L/S329Y): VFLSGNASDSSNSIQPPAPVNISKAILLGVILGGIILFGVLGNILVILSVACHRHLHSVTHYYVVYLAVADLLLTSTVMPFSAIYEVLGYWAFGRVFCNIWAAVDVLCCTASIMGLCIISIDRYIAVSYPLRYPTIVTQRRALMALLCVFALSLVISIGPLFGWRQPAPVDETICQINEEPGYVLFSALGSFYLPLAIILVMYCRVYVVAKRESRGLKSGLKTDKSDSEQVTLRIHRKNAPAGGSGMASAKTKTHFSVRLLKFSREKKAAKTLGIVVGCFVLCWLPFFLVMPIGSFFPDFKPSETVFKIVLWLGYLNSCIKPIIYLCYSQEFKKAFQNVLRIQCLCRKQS
The assay is described as follows: QAPB competition binding, purified immobilised receptor (KingFisher). To be noted: 10 nM QAPB, 20 mM HEPES pH 7.5, 100 mM NaCl, 0.02% DDM, 22 °C, 2 h.

SMILES strings stand for the structures.

As for `COc1cc2nc(N3CCN(C(=O)c4ccco4)CC3)nc(N)c2cc1OC` [Prazosin], on WT α1A-AR, the “NanoBiT Gq split-luciferase assay, COS-7” value is “inverse agonism of prazosin, WB-4101, phentolamine and silodosin at WT α1A-AR-expressing COS-7 cells”. For orientation: Ki means the equilibrium dissociation constant of an inhibitor or competing ligand from its target. Low values mean a stronger hold on the target, high ones a looser hold on the target. For `C[C@H](Cc1cc2c(c(C(N)=O)c1)N(CCCO)CC2)NCCOc1ccccc1OCC(F)(F)F` [Silodosin], the Ki in assay [1] turned out to be 8.4 ± 1.9 nM. Turning to `COc1cccc(OC)c1OCCNCC1COc2ccccc2O1` (stereo not drawn) [WB-4101], the affinity in assay [1] corresponds to a Ki of 7.6 ± 3.4 nM.
